Measured values from the NIST ThermoML archive (doi:10.1021/je200637v).
Numbers after ± are expanded uncertainties.

Assay: activity coefficient (dimensionless); of the first substance listed, at infinite dilution; xn = mol fraction of the nth substance listed
Details: Liquid, Chromatography, x1 = 0

SMILES	activity coefficient (322.85 K)	activity coefficient (332.65 K)	activity coefficient (343.15 K)
ClC(Cl)Cl [trichloromethane] + CCCCCCCC[N+](CCCCCCCC)(CCCCCCCC)CCCCCCCC.O=S(=O)([N-]S(=O)(=O)C(F)(F)F)C(F)(F)F	0.34 ± 0.04	0.35 ± 0.04	0.36 ± 0.04
ClC(Cl)Cl [trichloromethane] + CCCC[N+](C)(CCCC)CCCC.O=S(=O)([N-]S(=O)(=O)C(F)(F)F)C(F)(F)F	0.84 ± 0.03	0.87 ± 0.03	0.88 ± 0.03
CCN(CC)CC [triethylamine] + CCCCCCCCCC[N+](C)(C)C.O=S(=O)([N-]S(=O)(=O)C(F)(F)F)C(F)(F)F	2.17 ± 0.1	2.4 ± 0.11	2.31 ± 0.1
CCN(CC)CC [triethylamine] + CCCCCCCC[N+](CCCCCCCC)(CCCCCCCC)CCCCCCCC.O=S(=O)([N-]S(=O)(=O)C(F)(F)F)C(F)(F)F	1.03 ± 0.03	1.05 ± 0.03	1.02 ± 0.03
CCCCCCCCCCC [undecane] + CCCCCCCCCC[N+](C)(C)C.O=S(=O)([N-]S(=O)(=O)C(F)(F)F)C(F)(F)F	12.4 ± 0.57	12.2 ± 0.56	11.4 ± 0.52
CCCCCCCCCCC [undecane] + CCCCCCCC[N+](C)(C)C.O=S(=O)([N-]S(=O)(=O)C(F)(F)F)C(F)(F)F	25.8 ± 1.2	23.7 ± 1.1	21.1 ± 0.98
CCCCCCCCCCC [undecane] + CCCCCCCC[N+](CCCCCCCC)(CCCCCCCC)CCCCCCCC.O=S(=O)([N-]S(=O)(=O)C(F)(F)F)C(F)(F)F			2.54 ± 0.12
CCCCCCCCCCC [undecane] + CCCC[N+](C)(CCCC)CCCC.O=S(=O)([N-]S(=O)(=O)C(F)(F)F)C(F)(F)F	25.7 ± 1.2	24.8 ± 1.1	22.8 ± 1.1
